Assay results: PubChem BioAssay AID1963440 (Molecular Pharmacology Branch, DTP, NCI, 2024)
“And” between values parts separate entries of the source, which are not always exact repeats. Equal values may be shown once.

Test system: NCI-H1417 complex spheroids, growth % test/control
Assay: Anticancer human tumor NCI-H1417 cell line growth inhibition [Asc];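 also: spheroids exposed to compounds for 7 days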;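 as to viability, T/C: 100% = DMSO vehicle control wells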
Settings: for viability, T/C: stronger effect = lower value; active = viability on the fitted dose curve at most 10% of control; inactive = the rest
In short: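 Complex solid-tumor spheroids incorporating human endothelial and mesenchymal stem cells received single agents or combinations over half-log dilution ranges anchored to clinical Cmax.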

[1] = curve of first compound, second compound 0.1 µM
[2] = curve of first compound, second compound 0.316 µM
[3] = curve of first compound, second compound 1 µM
[4] = curve of first compound, second compound 0.01 µM
[5] = curve of first compound, second compound 0.0316 µM
[6] = second compound 0.01 µM, first compound 0.0316 µM
[7] = second compound 0.01 µM, first compound 0.1 µM
[8] = second compound 0.01 µM, first compound 0.316 µM
[9] = second compound 0.01 µM, first compound 1 µM
[10] = second compound 0.0316 µM, first compound 0.0316 µM
[11] = second compound 0.0316 µM, first compound 0.1 µM
[12] = second compound 0.0316 µM, first compound 0.316 µM
[13] = second compound 0.0316 µM, first compound 1 µM
[14] = second compound 0.1 µM, first compound 0.0316 µM
[15] = second compound 0.1 µM, first compound 0.1 µM
[16] = second compound 0.1 µM, first compound 0.316 µM
[17] = second compound 0.1 µM, first compound 1 µM
[18] = second compound 0.316 µM, first compound 0.0316 µM
[19] = second compound 0.316 µM, first compound 0.1 µM
[20] = second compound 0.316 µM, first compound 0.316 µM
[21] = second compound 0.316 µM, first compound 1 µM
[22] = second compound 1 µM, first compound 0.0316 µM
[23] = second compound 1 µM, first compound 0.1 µM
[24] = second compound 1 µM, first compound 0.316 µM
[25] = second compound 1 µM, first compound 1 µM

Cc1c(S(C)(=O)=O)c(-c2cc(F)cc(N3CCN(c4ccc(NS(=O)(=O)c5ccc(NC(CCN6CCC(C(=O)OCCCP(=O)(O)O)CC6)CSc6ccccc6)c(S(=O)(=O)C(F)(F)F)c5)cc4)CC3)c2)c(-c2ccc(Cl)cc2)n1C(C)C (stereo not given)
322 nM [middle of 14 runs]: IC50 (compound alone, run of 10/11/2022)
active: viability, T/C (compound 3.16 µM) 3.19% [middle of 14 runs] | viability, T/C (compound 10 µM) 2.54% [middle of 12 runs]
inactive: viability, T/C (compound 0.1 µM) 81.6% [middle of 14 runs] | viability, T/C (compound 0.316 µM) 50.6% [middle of 14 runs] | viability, T/C (compound 1 µM) 13.7% [middle of 14 runs]

C=C(F)C(=O)N1CCN(c2nc(OCC3CCCN3C)nc3c2CCN(c2cccc4cccc(Cl)c24)C3)CC1CC#N (stereo not given)
inactive: viability, T/C (compound 0.0316 µM) 98.9% and 103% and 94.2% | viability, T/C (compound 0.1 µM) 106% and 101% and 88% | viability, T/C (compound 0.316 µM) 96.4% and 99.8% and 99.7% | viability, T/C (compound 1 µM) 90.7% and 84.8% and 90.3% | viability, T/C (compound 3.16 µM) 59.8% and 57.5% and 74.3%
3830 nM and 3660 nM and 4610 nM: IC50 (curve of compound)
active: viability, T/C (compound 10 µM) 0.26% and 0.27% and 0.31%

NC(=O)C(=Cn1cnc(-c2cc(C(F)(F)F)cc(C(F)(F)F)c2)n1)c1cncnc1
inactive: viability, T/C (compound 0.000949 µM) 98.9% and 102% and 99.9% | viability, T/C (compound 0.003 µM) 99.9% and 106% and 107% | viability, T/C (compound 0.00949 µM) 89.7% and 96.8% and 104% | viability, T/C (compound 0.03 µM) 93% and 97.1% and 94.3% | viability, T/C (compound 0.0949 µM) 79.8% and 61.8% and 85.1% | viability, T/C (compound 0.3 µM) 25.3% and 22.2% and 44.6%
178 nM and 134 nM and 259 nM: IC50 (curve of compound)

CCN1C(C(=O)NC23CCC(C(=O)O)(CC2)CC3)C(c2cccc(Cl)c2F)C2(C(=O)Nc3cc(Cl)ccc32)C12CCCCC2 (stereo not given) + Cc1c(S(C)(=O)=O)c(-c2cc(F)cc(N3CCN(c4ccc(NS(=O)(=O)c5ccc(NC(CCN6CCC(C(=O)OCCCP(=O)(O)O)CC6)CSc6ccccc6)c(S(=O)(=O)C(F)(F)F)c5)cc4)CC3)c2)c(-c2ccc(Cl)cc2)n1C(C)C
< 9.49 nM: IC50 [2] | IC50 [3] | IC50 (curve of first compound, second compound 3.16 µM) | IC50 (curve of first compound, second compound 10 µM)
584 nM: IC50 [1]
active: viability, T/C (second compound 0.316 µM, first compound 0.949 µM) 11.8% | viability, T/C (second compound 0.316 µM, first compound 3 µM) 1.6% | viability, T/C (second compound 1 µM, first compound 0.03 µM) 6.74% | viability, T/C (second compound 1 µM, first compound 0.0949 µM) 4.76% | viability, T/C (second compound 1 µM, first compound 0.3 µM) 2.15% | viability, T/C (second compound 1 µM, first compound 0.949 µM) 1.25% | viability, T/C (second compound 1 µM, first compound 3 µM) 0.65% | viability, T/C (second compound 3.16 µM, first compound 0.00949 µM) 2.36% | viability, T/C (second compound 3.16 µM, first compound 0.03 µM) 2.41% | viability, T/C (second compound 3.16 µM, first compound 0.0949 µM) 1.59% | viability, T/C (second compound 3.16 µM, first compound 0.3 µM) 1.03% | viability, T/C (second compound 3.16 µM, first compound 0.949 µM) 0.63% | viability, T/C (second compound 3.16 µM, first compound 3 µM) 0.39% | viability, T/C (second compound 10 µM, first compound 0.00949 µM) 1.88% | viability, T/C (second compound 10 µM, first compound 0.03 µM) 2.25% | viability, T/C (second compound 10 µM, first compound 0.0949 µM) 2.08% | viability, T/C (second compound 10 µM, first compound 0.3 µM) 1.02% | viability, T/C (second compound 10 µM, first compound 0.949 µM) 0.65% | viability, T/C (second compound 10 µM, first compound 3 µM) 0.29%
inactive: viability, T/C (second compound 0.1 µM, first compound 0.00949 µM) 78.9% | viability, T/C (second compound 0.1 µM, first compound 0.03 µM) 81.2% | viability, T/C (second compound 0.1 µM, first compound 0.0949 µM) 67.5% | viability, T/C (second compound 0.1 µM, first compound 0.3 µM) 58.7% | viability, T/C (second compound 0.1 µM, first compound 0.949 µM) 44.9% | viability, T/C (second compound 0.1 µM, first compound 3 µM) 16.4% | viability, T/C (second compound 0.316 µM, first compound 0.00949 µM) 35.7% | viability, T/C (second compound 0.316 µM, first compound 0.03 µM) 33.3% | viability, T/C (second compound 0.316 µM, first compound 0.0949 µM) 22.1% | viability, T/C (second compound 0.316 µM, first compound 0.3 µM) 16.4% | viability, T/C (second compound 1 µM, first compound 0.00949 µM) 11.4%

COc1c(OCCCN2CCOCC2)ccc2c3n(c(=NC(=O)c4cnc(N)nc4)nc12)CCN3 + CNC(C)C(=O)NC1CN(S(=O)(=O)c2cccc(S(=O)(=O)N3CCC4CCC(C(=O)NC(c5ccccc5)c5ccccc5)N4C(=O)C(NC(=O)C(C)NC)C3)c2)CCC2CCC(C(=O)NC(c3ccccc3)c3ccccc3)N2C1=O
inactive: viability, T/C (second compound 0.01 µM, first compound 0.00316 µM) 95.5% | viability, T/C (second compound 0.01 µM, first compound 0.01 µM) 109% | viability, T/C [6] 100% | viability, T/C [7] 82.3% | viability, T/C [8] 79.4% | viability, T/C [9] 58.4% | viability, T/C (second compound 0.0316 µM, first compound 0.00316 µM) 96.1% | viability, T/C (second compound 0.0316 µM, first compound 0.01 µM) 93.8% | viability, T/C [10] 91.1% | viability, T/C [11] 78.5% | viability, T/C [12] 77.2% | viability, T/C [13] 57.8% | viability, T/C (second compound 0.1 µM, first compound 0.00316 µM) 95.4% | viability, T/C (second compound 0.1 µM, first compound 0.01 µM) 96.5% | viability, T/C [14] 96.6% | viability, T/C [15] 81.1% | viability, T/C [16] 71.4% | viability, T/C [17] 53.8% | viability, T/C (second compound 0.316 µM, first compound 0.00316 µM) 99.4% | viability, T/C (second compound 0.316 µM, first compound 0.01 µM) 97.7% | viability, T/C [18] 87.2% | viability, T/C [19] 74.1% | viability, T/C [20] 69.2% | viability, T/C [21] 56.4% | viability, T/C (second compound 1 µM, first compound 0.00316 µM) 97.7% | viability, T/C (second compound 1 µM, first compound 0.01 µM) 99% | viability, T/C [22] 90.1% | viability, T/C [23] 83.4% | viability, T/C [24] 77.2% | viability, T/C [25] 56.4%
> 1000 nM: IC50 [4] | IC50 [5] | IC50 [1] | IC50 [2] | IC50 [3]

C=C(F)C(=O)N1CCN(c2nc(OCC3CCCN3C)nc3c2CCN(c2cccc4cccc(Cl)c24)C3)CC1CC#N (stereo not given) + CNC(C)C(=O)NC1CN(S(=O)(=O)c2cccc(S(=O)(=O)N3CCC4CCC(C(=O)NC(c5ccccc5)c5ccccc5)N4C(=O)C(NC(=O)C(C)NC)C3)c2)CCC2CCC(C(=O)NC(c3ccccc3)c3ccccc3)N2C1=O
active: viability, T/C (second compound 0.01 µM, first compound 10 µM) 0.22% | viability, T/C (second compound 0.0316 µM, first compound 10 µM) 0.2% | viability, T/C (second compound 0.1 µM, first compound 10 µM) 0.2% | viability, T/C (second compound 0.316 µM, first compound 10 µM) 0.21% | viability, T/C (second compound 1 µM, first compound 10 µM) 1.03%
3760 nM: IC50 [5]
3230 nM: IC50 [3]
4600 nM: IC50 [4]
3980 nM: IC50 [1]
inactive: viability, T/C [6] 111% | viability, T/C [7] 101% | viability, T/C [8] 106% | viability, T/C [9] 92.2% | viability, T/C (second compound 0.01 µM, first compound 3.16 µM) 76.2% | viability, T/C [10] 98.6% | viability, T/C [11] 102% | viability, T/C [12] 93.2% | viability, T/C [13] 105% | viability, T/C (second compound 0.0316 µM, first compound 3.16 µM) 58.8% | viability, T/C [14] 90.6% | viability, T/C [15] 99.5% | viability, T/C [16] 89.8% | viability, T/C [17] 90% | viability, T/C (second compound 0.1 µM, first compound 3.16 µM) 62.3% | viability, T/C [18] 94.5% | viability, T/C [19] 90.8% | viability, T/C [20] 94.8% | viability, T/C [21] 97.1% | viability, T/C (second compound 0.316 µM, first compound 3.16 µM) 48.9% | viability, T/C [22] 95.2% | viability, T/C [23] 101% | viability, T/C [24] 106% | viability, T/C [25] 101% | viability, T/C (second compound 1 µM, first compound 3.16 µM) 50.9%
3070 nM: IC50 [2]
